Ki and Selectivity data for 30 compounds are collected here from ChEMBL document CHEMBL1132946 (J Med Chem, 2000).

The structures appear in SMILES notation.

The target in assay [1] is T1, Adenosine receptor A1 (Bos taurus, UniProt P28190).
T1 sequence (P28190 whole entry): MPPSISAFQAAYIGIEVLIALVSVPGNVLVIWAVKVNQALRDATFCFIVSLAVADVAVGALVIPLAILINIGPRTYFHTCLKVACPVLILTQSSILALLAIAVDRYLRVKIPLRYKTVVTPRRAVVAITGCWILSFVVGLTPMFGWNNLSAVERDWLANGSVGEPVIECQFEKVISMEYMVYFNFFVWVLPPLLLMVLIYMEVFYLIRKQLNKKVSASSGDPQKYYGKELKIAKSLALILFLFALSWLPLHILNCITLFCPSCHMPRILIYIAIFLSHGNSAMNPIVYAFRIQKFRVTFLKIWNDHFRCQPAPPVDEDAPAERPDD
In words: biochemical.

Assay [2] is described as follows: Selectivity, ratio of affinity towards adenosine A3 to A1.
The target of assay [3] is Adenosine receptor A2a (Bos taurus). In words: biochemical.
For assay [4], the species on record is Bos taurus. In words: Selectivity, ratio of affinity towards adenosine A3 to A2A.
Assay [5] concerns the target T2, Adenosine receptor A3 (Rattus norvegicus, UniProt P28647).
T2 sequence (P28647 whole entry): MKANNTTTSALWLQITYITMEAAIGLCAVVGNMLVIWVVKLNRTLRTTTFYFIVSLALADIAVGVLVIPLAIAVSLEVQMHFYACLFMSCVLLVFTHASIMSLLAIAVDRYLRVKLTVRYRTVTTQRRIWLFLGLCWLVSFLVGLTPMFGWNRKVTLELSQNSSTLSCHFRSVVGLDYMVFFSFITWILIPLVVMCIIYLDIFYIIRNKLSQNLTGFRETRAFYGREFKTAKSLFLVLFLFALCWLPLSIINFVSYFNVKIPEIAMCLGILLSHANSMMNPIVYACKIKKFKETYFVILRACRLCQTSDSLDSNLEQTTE
In words: Ability to displace the specific binding of [3H](R)-PIA to adenosine A3 receptor from rat testis membranes. It is filed as cell membranes, Membrane.

The species named for assay [6] is Bos taurus. In words: Selectivity, ratio of affinity towards adenosine A2A to A1.
Assay [7] addresses T1, Adenosine receptor A1. In words: Displacement of [3H]CHA from A1 Adenosine receptor of Bovine brain cortical membranes.

With `Cc1ccc2c(O)cc(-c3ccccc3F)nc2n1`, the Ki (as a rule, a dissociation constant, usually derived from enzyme kinetics or from competition with a known ligand) in assay [1] came to 0.011 µM; in assay [3] it was 0.47 µM; in assay [5], 4.6 µM. The Selectivity was found to be 418 in assay [2], 10 in assay [4] and 43 in assay [6].

For `CCn1c(-c2ccccc2)cc(=O)c2ccc(C)nc21`, the Ki in assay [1] is 0.45 µM; in assay [5], greater than 10 µM.

Consider `Oc1cc(-c2ccccc2)nc2nc(Oc3ccccc3)ccc12`, for which the Ki is 0.026 µM in assay [1] and greater than 10 µM in assay [5].

Take `CCOC(=O)N1CCN(c2cc(-c3ccccc3)nc3nc(C)ccc23)CC1`: the results for the Ki in assay [1] and in assay [5] were 1.2 µM and greater than 10 µM, respectively.

Consider `Cc1ccc2ccc(-c3ccccc3)nc2n1`, for which the Ki in assay [1] is 6.9 µM; in assay [5], greater than 10 µM.

As to `Cn1c(=O)ccc2c(O)cc(-c3ccccc3)nc21`, the figures for the Ki in assay [1] and in assay [5] were 4.9 µM and greater than 10 µM, respectively.

As to `Cc1ccc2c(N)cc(-c3ccccc3)nc2n1`, the Ki in assay [1] is 0.017 µM; in assay [5] it was greater than 10 µM.

Take `Cc1ccc2c(O)cc(-c3ccc([N+](=O)[O-])cc3)nc2n1`: the Ki was 0.0099 µM in assay [1] and greater than 10 µM in assay [5].

Consider `Cc1ccc2c(O)cc(-c3ccc(F)cc3)nc2n1`, for which the Ki in assay [1] is 0.0053 µM; in assay [5], 6.1 µM.

In the case of `Oc1cc(-c2ccccc2)nc2nc(F)ccc12`, the figures for the Ki in assay [1], in assay [3] and in assay [5] were 0.0041 µM, 0.17 µM and greater than 10 µM, respectively. Moreover, the Selectivity in assay [2] was greater than 2440; in assay [4], greater than 59; in assay [6], 41.

`Cc1ccc2c(Oc3ccccc3)cc(-c3ccccc3)nc2n1`: in assay [5], the Ki was greater than 10 µM.

Regarding `Oc1cc(-c2ccccc2)nc2ncccc12`, the values for the Ki in assay [1] and in assay [5] were 0.016 µM and 3 µM, respectively.

As to `Cc1ccc2c(NN)cc(-c3ccccc3)nc2n1`, the Ki in assay [1] is 0.1 µM; in assay [5], greater than 10 µM.

With `Oc1cc(-c2ccccc2)nc2nc(Br)ccc12`, the figures for the Ki in assay [1] and in assay [5] were 0.0007 µM and 2.1 µM, respectively.

Turning to `COc1cc(-c2ccccc2)nc2nc(C)ccc12`, the Ki was 6 µM in assay [1] and greater than 10 µM in assay [5].

For the compound `OC[C@H]1O[C@@H](n2cnc3c(NC4CCCCC4)ncnc32)[C@H](O)[C@@H]1O`, the Ki came out at 0.0013 µM in assay [1] and 0.025 µM in assay [5].

As for `CCOc1ccc2c(O)cc(-c3ccccc3)nc2n1`, the Ki was 0.0052 µM in assay [1], greater than 10 µM in assay [3] and greater than 10 µM in assay [5]. The Selectivity in assay [2] and in assay [6] was greater than 1920 each time.

As for `O=c1ccc2c(O)cc(-c3ccccc3)nc2[nH]1`, the Ki in assay [1] and in assay [5] was greater than 10 µM throughout.

As for `Cc1ccc2c(S)cc(-c3ccccc3)nc2n1`, the Ki was 0.08 µM in assay [1] and greater than 10 µM in assay [5].

With `COc1cc(-c2ccccc2)nc2c1ccc(=O)n2C`, the figures for the Ki in assay [1] and in assay [5] were 1.3 µM and greater than 10 µM, respectively.

For `Cc1ccc2c(NC3CCCCC3)cc(-c3ccccc3)nc2n1`, the figures for the Ki in assay [1] and in assay [5] were 0.028 µM and greater than 10 µM, respectively.

As to `Nc1ccc2c(O)cc(-c3ccccc3)nc2n1`, the Ki is 0.0053 µM in assay [1] and greater than 10 µM in assay [5].

Take `COc1ccc2c(O)cc(-c3ccccc3)nc2n1`: the Ki in assay [1] is 0.0016 µM; in assay [5], greater than 10 µM.

`Cc1ccc2c(Cl)cc(-c3ccccc3)nc2n1`: the Selectivity in assay [2] and in assay [6] was greater than 10 throughout. Also, the results for the Ki in assay [3], in assay [7] and in assay [5] were greater than 10 µM, 1 µM and greater than 10 µM, respectively.

As to `Cc1ccc2c(N3CCNCC3)cc(-c3ccccc3)nc2n1`, the Ki is 8.7 µM in assay [1] and greater than 10 µM in assay [5].

Regarding `Cc1ccc2c(N(C)C)cc(-c3ccccc3)nc2n1`, the Ki in assay [1] is 0.55 µM; in assay [5], greater than 10 µM.

Turning to `Cc1ccc2c(O)cc(-c3ccccc3)nc2n1`, the Ki worked out at 0.0053 µM in assay [1], 0.46 µM in assay [3] and 8.8 µM in assay [5]. Also, the values for the Selectivity in assay [2], in assay [4] and in assay [6] were 1660, 19 and 87, respectively.

With `Oc1cc(-c2ccccc2)nc2nc(Cl)ccc12`, the Ki worked out at 0.00015 µM in assay [1] and 2.1 µM in assay [5].

For the compound `CCCn1c(=O)c2[nH]c(-c3ccc(OCC(=O)NCCN)cc3)nc2n(CCC)c1=O` [XANTHINE AMINE CONGENER], the Ki amounted to 0.0013 µM in assay [1] and 0.418 µM in assay [5].

For `Cc1ccc2c(N=[N+]=[N-])cc(-c3ccccc3)nc2n1`, the Ki in assay [1], in assay [3] and in assay [5] was greater than 10 µM throughout.
